Results published in paper PMC5290327, “SC83288 is a clinical development candidate for the treatment of severe malaria” (Nature Communications, 2017).
Converted amounts (≈) assume the structure as drawn.

Tests used:
b1 (h) = molecular target: T1, b1 (h) (Homo sapiens, UniProt P08588); assay: Radioligand binding
T1 construct: Cerep (contract study)

5-HT2A (h) = molecular target: T2, 5-HT2A (h) (Homo sapiens, UniProt P28223); assay: Radioligand binding
T2 construct: Cerep (contract screening)

[1] = test system: Ca2+ channel (L, verapamil site); assay: Radioligand binding
Protocol: (§1) The study was carried out by Cerep (Celle l'Evescault, France). An in vitro pharmacological profiling panel was designed to detect potential high-risk clinical adverse drug reactions. The panel comprised of 54 targets.
(§2) The specific ligand binding to the receptors was defined as the difference between the total binding and the non-specific binding determined in the presence of an excess of unlabelled ligand. Results were expressed as a per cent of control specific binding and as a per cent inhibition of control specific obtained in the presence of the test compounds. Results showing an inhibition (or stimulation) >50% were considered to represent significant effects of the test compounds. […] The IC50 values were determined by non-linear regression analysis of the competition curves generated with mean replicate values using Hill equation curve fitting. The inhibition constants (Ki) were calculated using the Cheng Prusoff equation.

a2 (non-selective) = assay: Radioligand binding
Protocol: as §1, §2

5-HT2B (h) = molecular target: T3, 5-HT2B (h) (Homo sapiens, UniProt P41595); assay: Radioligand binding
T3 construct: Cerep (contract screening)
Protocol: as §1, §2

sst (non-selective) = assay: Radioligand binding
Protocol: as §1, §2

a1 (non-selective) = assay: Radioligand binding
Protocol: as §1, §2

Na+ channel (site 2) = assay: Radioligand binding
Cl- channel (GABA-gated) = assay: Radioligand binding
Plasmodium berghei [2] = assay: Ex vivo one-cycle growth inhibition assay; format: cell-based
Protocol: (§3) This was the case for both an in vivo 4 day dosing regimen of 30 mg kg^−1 per day and an ex vivo one-cycle growth inhibition assay. […] Differential therapeutic efficacy in various rodent model systems is a well-established phenomenon and is typically associated with charged compounds, such as positively charged amidines and negatively charged phosphoric acid or carboxylic acid containing drugs. The phenomenon is explained based on selective uptake of charged compounds through parasite-induced channels, termed new permeation pathways, in the host cell plasma membrane and species-specific characteristics of the new permeation pathways.

Y2 (h) = molecular target: T4, Y2 (h) (Homo sapiens, UniProt P49146); assay: Radioligand binding
T4 construct: Cerep

Plasmodium berghei [3] = assay: Rodent malaria model; format: in vivo; conditions: P. berghei, 30 mg kg-1 i.p. 1x4 days
Protocol: as §3

P. falciparum strain D10 = assay: Growth inhibition assay; format: cell-based; conditions: Plasmodium falciparum
[4] = test system: P. falciparum strain FCR3; assay: Growth inhibition assay; format: cell-based; conditions: Plasmodium falciparum
b2 (h) = molecular target: T5, b2 (h) (Homo sapiens, UniProt P30411); format: binding
T5 construct: Cerep (contract study)

HepG2 cells = assay: Cytotoxicity; conditions: 50 μM
CYP2D6 = CYP2D6 (Homo sapiens, UniProt P10635); assay: CYP inhibition, human liver microsomes; conditions: CYP2D6, dextromethorphan to O-desmethyldextromethorphan, 10 µM
5-HT transporter (h) = molecular target: T6, 5-HT transporter (h) (Homo sapiens, UniProt P31645); assay: Radioligand binding
T6 construct: Cerep (contract screening)

k (KOP) = molecular target: T7, k (KOP) (Rattus norvegicus, UniProt P34975); assay: Radioligand binding
T7 construct: Cerep

[5] = In vitro metabolism in liver microsomes; conditions: rat liver microsomes, 10 μM
CYP2C9 = CYP2C9 (Homo sapiens, UniProt P11712); assay: CYP inhibition, human liver microsomes; conditions: CYP2C9, tolbutamide to OH-tolbutamide, 10 µM
P. falciparum strain K1 = assay: microbe, parasite or virus in culture; format: cell-based; conditions: Plasmodium falciparum
[6] = Stability in cultured blood cell cultures; format: in vitro ADME; conditions: 2 μM, at least 6 h, 37 °C
Protocol: An enriched young trophozoite-stage culture of P. falciparum Dd2 was obtain by magnetic purification and allowed to recover for 1 h at 37 °C in RPMI 1640 medium (Life Technologies) enriched with 1% hypoxanthine (C.C.Pro GmbH) and […] (Life Technologies). The experiment was performed in a total volume of 300 μl, at a haematocrit of 50%, in presence or absence of 2 μM of SC81458 or SC83288, for 6 h at 37 °C under shaking conditions. Each sample was subsequently treated with 1.2 ml of ice-cold acetonitrile, incubated on ice for 10 min and centrifuged for 15 min at 6,000g at 4 °C. Supernatants were stored at −80 °C until mass spectrometric measurement.

NTS1 (NT1) (h) = molecular target: T8, NTS1 (NT1) (h) (Homo sapiens, UniProt P30989); assay: Radioligand binding
T8 construct: Cerep

NK3 (h) = molecular target: T9, NK3 (h) (Homo sapiens, UniProt P29371); assay: Radioligand binding
T9 construct: Cerep

5-HT5a (h) = molecular target: T10, 5-HT5a (h) (Homo sapiens, UniProt P47898); assay: Radioligand binding
T10 construct: Cerep (contract screening)

[7] = Solubility in phosphate buffer; format: physicochemical
Protocol: SC81458 and SC83288 were soluble in water (890 and 940 μg ml^−1, respectively) and organic solvents. […] The compounds were stable in different physiological solutions, including artificial gastric juice, simulated intestinal fluid, phosphate-buffered saline and human plasma, when incubated for 6 h at 37 °C.

P. falciparum strain 7G8 = assay: microbe, parasite or virus in culture; format: cell-based; conditions: Plasmodium falciparum
[8] = test system: human peripheral blood macrophages; assay: Cytotoxicity; conditions: 50 μM
5-HT7 (h) = molecular target: T11, 5-HT7 (h) (Homo sapiens, UniProt P34969); assay: Radioligand binding
T11 construct: Cerep (contract screening)

human T-cells = assay: Cytotoxicity; conditions: 50 μM
[9] = test system: P. falciparum strain NF54; assay: Growth inhibition assay; format: cell-based; conditions: Plasmodium falciparum

Sequence of CYP2C9 (P11712 whole entry): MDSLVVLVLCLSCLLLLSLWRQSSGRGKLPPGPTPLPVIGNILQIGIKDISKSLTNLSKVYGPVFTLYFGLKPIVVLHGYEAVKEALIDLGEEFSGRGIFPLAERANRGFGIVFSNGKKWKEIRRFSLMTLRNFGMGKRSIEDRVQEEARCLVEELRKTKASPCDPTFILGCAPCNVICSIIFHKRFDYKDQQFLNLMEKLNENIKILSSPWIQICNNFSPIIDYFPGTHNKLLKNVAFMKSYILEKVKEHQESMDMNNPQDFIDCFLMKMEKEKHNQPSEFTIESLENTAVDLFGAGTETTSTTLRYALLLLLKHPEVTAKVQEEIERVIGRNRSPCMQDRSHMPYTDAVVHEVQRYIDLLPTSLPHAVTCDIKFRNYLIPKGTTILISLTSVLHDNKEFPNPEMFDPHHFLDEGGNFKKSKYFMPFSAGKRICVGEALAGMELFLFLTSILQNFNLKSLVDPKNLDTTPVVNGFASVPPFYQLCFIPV
Sequence of CYP2D6 (P10635 whole entry): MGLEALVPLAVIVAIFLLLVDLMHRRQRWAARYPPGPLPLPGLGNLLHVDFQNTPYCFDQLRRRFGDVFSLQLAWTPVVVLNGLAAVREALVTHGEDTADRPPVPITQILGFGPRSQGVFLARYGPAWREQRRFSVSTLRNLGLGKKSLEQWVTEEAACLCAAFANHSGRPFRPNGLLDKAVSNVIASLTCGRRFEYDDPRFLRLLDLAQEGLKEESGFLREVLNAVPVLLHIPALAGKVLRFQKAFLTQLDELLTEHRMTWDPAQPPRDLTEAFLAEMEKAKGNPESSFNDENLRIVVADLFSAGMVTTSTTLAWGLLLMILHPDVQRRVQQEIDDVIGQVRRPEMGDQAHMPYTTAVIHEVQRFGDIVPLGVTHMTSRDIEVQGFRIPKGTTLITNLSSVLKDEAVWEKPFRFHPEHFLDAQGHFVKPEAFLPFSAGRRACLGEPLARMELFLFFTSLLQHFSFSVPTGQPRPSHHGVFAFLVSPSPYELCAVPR
T11 sequence (P34969 whole entry): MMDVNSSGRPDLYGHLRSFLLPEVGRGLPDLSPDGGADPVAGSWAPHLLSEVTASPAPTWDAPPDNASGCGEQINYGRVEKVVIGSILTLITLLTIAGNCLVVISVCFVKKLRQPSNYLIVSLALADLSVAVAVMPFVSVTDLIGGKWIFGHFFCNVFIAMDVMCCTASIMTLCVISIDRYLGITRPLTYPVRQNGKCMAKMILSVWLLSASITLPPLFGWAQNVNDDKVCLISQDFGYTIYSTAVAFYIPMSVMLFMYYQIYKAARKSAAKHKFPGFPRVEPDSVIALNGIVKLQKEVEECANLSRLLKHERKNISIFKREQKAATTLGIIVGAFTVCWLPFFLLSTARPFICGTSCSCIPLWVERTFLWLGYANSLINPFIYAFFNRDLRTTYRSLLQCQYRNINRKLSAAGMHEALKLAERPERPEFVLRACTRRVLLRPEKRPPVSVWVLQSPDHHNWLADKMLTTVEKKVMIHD
T4 sequence (P49146 whole entry): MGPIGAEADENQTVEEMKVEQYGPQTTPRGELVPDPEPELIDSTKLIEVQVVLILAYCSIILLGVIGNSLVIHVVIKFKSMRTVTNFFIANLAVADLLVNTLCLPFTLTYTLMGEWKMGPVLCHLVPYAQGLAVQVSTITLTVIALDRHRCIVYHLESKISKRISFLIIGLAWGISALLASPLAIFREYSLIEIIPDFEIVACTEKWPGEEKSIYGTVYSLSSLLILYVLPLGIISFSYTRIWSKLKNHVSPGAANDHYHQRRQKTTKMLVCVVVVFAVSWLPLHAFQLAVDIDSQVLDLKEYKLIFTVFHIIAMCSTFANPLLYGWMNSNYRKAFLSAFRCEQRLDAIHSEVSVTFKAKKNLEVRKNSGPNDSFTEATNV
T3 sequence (P41595 whole entry): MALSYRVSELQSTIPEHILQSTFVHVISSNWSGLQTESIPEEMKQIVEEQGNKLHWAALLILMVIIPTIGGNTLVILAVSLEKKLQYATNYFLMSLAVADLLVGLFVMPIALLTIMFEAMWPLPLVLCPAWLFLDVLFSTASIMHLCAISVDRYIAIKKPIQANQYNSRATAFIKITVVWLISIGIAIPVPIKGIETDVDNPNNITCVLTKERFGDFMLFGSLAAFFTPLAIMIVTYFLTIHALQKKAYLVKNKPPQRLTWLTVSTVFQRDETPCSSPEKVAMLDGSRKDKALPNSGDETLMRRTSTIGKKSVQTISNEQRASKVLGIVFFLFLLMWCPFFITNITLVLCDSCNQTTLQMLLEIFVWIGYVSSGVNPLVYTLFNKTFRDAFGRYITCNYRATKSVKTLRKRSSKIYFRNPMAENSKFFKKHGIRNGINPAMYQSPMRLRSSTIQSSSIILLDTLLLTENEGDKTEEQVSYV
T2 sequence (P28223 whole entry): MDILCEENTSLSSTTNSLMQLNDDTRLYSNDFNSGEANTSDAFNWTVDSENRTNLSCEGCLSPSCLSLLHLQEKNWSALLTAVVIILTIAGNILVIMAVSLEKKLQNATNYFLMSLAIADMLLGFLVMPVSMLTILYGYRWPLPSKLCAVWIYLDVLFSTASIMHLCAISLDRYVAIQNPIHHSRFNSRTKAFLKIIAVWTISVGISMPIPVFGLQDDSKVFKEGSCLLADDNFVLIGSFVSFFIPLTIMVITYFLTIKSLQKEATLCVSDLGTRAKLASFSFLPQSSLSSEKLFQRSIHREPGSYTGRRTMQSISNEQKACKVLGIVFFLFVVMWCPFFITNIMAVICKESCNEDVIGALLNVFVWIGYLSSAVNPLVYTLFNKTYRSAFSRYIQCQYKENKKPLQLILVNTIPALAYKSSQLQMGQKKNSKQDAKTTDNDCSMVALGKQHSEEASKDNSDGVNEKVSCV
T1 sequence (P08588 whole entry): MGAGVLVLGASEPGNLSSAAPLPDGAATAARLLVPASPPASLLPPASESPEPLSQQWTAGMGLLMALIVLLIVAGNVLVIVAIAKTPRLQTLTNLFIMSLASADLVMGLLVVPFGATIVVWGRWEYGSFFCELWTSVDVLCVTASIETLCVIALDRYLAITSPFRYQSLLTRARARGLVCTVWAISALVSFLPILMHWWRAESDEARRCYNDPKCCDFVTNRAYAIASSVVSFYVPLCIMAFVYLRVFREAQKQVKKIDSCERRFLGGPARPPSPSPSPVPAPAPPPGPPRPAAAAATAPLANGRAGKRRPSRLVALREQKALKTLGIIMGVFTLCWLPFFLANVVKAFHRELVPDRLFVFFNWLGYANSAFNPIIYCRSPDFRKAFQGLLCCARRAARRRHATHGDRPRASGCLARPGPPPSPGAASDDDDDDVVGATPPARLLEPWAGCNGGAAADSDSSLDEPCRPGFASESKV
T9 sequence (P29371 whole entry): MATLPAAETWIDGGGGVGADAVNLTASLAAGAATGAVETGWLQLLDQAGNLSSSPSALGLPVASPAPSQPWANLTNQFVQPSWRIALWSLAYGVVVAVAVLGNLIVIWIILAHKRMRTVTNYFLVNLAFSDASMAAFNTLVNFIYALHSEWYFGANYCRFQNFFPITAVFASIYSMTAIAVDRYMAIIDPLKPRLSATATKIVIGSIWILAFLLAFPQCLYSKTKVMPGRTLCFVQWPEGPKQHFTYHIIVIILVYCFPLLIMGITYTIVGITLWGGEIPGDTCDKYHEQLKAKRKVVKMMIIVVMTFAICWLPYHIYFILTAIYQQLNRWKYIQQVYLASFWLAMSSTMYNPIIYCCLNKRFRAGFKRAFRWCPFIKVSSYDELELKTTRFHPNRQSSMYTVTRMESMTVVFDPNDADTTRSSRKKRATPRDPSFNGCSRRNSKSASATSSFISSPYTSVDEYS
T6 sequence (P31645 whole entry): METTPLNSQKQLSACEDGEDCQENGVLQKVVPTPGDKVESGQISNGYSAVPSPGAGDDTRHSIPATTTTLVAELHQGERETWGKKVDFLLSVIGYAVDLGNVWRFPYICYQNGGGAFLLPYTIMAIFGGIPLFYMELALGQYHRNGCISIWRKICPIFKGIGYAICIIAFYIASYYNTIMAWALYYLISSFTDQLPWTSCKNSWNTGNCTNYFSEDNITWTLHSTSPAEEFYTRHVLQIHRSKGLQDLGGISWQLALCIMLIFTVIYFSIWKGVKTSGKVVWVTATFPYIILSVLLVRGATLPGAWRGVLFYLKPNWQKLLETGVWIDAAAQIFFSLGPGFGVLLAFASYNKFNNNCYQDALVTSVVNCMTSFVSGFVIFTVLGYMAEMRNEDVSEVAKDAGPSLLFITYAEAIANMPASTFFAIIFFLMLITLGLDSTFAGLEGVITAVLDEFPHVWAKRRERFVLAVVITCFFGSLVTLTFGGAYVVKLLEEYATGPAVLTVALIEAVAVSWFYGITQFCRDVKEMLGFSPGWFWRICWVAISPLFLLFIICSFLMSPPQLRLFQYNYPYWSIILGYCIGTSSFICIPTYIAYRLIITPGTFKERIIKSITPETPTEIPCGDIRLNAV
T10 sequence (P47898 whole entry): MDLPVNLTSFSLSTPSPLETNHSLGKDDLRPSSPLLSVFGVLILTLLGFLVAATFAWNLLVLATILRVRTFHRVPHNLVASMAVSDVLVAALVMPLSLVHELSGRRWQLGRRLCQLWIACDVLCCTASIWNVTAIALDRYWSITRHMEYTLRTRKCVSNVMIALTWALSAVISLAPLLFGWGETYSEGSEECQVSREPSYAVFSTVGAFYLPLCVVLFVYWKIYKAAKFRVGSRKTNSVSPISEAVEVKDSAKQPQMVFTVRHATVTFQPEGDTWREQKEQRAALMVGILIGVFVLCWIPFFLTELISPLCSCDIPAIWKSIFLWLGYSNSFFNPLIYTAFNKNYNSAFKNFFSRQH

Compound	Inhibition of control specific binding (b1 (h))	Inhibition of control specific binding (5-HT2A (h))	Inhibition of control specific binding [1]	Inhibition of control specific binding (a2 (non-selective))	Inhibition of control specific binding (5-HT2B (h))	Inhibition of control specific binding (sst (non-selective))	Inhibition of control specific binding (a1 (non-selective))	Inhibition of control specific binding (Na+ channel (site 2))	Inhibition of control specific binding (Cl- channel (GABA-gated))	activity, ex vivo one-cycle growth inhibition assay (Plasmodium berghei [2])	Inhibition of control specific binding (Y2 (h))	Outcome (Plasmodium berghei [3])	IC50 (P. falciparum strain D10)	IC50 [4]	Inhibition of control specific binding (b2 (h))	in vitro propagation / cytotoxicity (HepG2 cells)	Remaining enzyme activity (CYP2D6)	Inhibition of control specific binding (5-HT transporter (h))	Inhibition of control specific binding (k (KOP))	remaining after 60 min of incubation [5]	other results
CCCCN1CCN(C(=N)c2cccc(NC(=O)Nc3ccc(S(=O)(=O)NCc4ccc(S(N)(=O)=O)cc4)cc3)c2)CC1 [SC81458, 4-(3-(3-((4-butylpiperazin-1-yl)(imino)methyl)phenyl)ureido)-N-(4-sulfamoylbenzyl) benzenesulfonamide]	-2%	17%	17%	21%	37%	-2%	21%	45%	-28%	inactive	-20%	inactive	9 ± 4 nM	13 ± 8 nM	7%	did not affect	107%	28%	43%	74%	Remaining enzyme activity (CYP2C9): 104%; IC50 (P. falciparum strain K1): 9 ± 3 nM; stability in human red blood cells and P. falciparum cultures [6]: stable; Inhibition of control specific binding (NTS1 (NT1) (h)): 1%; Inhibition of control specific binding (NK3 (h)): 6%; Inhibition of control specific binding (5-HT5a (h)): 1%; solubility ([7]; pH 4, aqueous buffer): 1800 µM (≈ 1130 µg/mL); solubility ([7]; pH 9, aqueous buffer): 400 µM (≈ 251 µg/mL); IC50 (P. falciparum strain 7G8): 18 ± 5 nM; in vitro propagation / cytotoxicity [8]: did not affect; Inhibition of control specific binding (5-HT7 (h)): 19%; in vitro propagation / cytotoxicity (human T-cells): did not affect; IC50 [9]: 0.4 ± 0.05 nM
COC(=O)N1CCN(C(=N)c2cccc(NC(=O)Nc3ccc(S(=O)(=O)NCc4ccc(S(N)(=O)=O)cc4)cc3)c2)CC1 [SC83288, methyl 4-(imino(3-(3-(4-(N-(4-sulfamoylbenzyl)sulfamoyl)phenyl)ureido)phenyl)methyl) piperazine-1-carboxylate]	7%	30%	14%	14%	17%	4%	9%	19%	-37%	inactive	-4%	inactive	5 ± 1 nM	6 ± 1 nM	-4%	did not affect	91%	38%	36%	91%	Remaining enzyme activity (CYP2C9): 103%; IC50 (P. falciparum strain K1): 5 ± 1 nM; stability in human red blood cells and P. falciparum cultures [6]: stable; Inhibition of control specific binding (NTS1 (NT1) (h)): 1%; Inhibition of control specific binding (NK3 (h)): 5%; Inhibition of control specific binding (5-HT5a (h)): 16%; solubility ([7]; pH 4, aqueous buffer): 2600 µM (≈ 1640 µg/mL); solubility ([7]; pH 9, aqueous buffer): 800 µM (≈ 504 µg/mL); IC50 (P. falciparum strain 7G8): 10 ± 1 nM; in vitro propagation / cytotoxicity [8]: did not affect; Inhibition of control specific binding (5-HT7 (h)): 4%; in vitro propagation / cytotoxicity (human T-cells): did not affect; IC50 [9]: 2 ± 1 nM
